What all share (assay): FP displacement (competition) of FITC-15 AA CRIPT by library peptide, IC50 and Ki
Test [1] has as its target PSG (PSD-95). The conditions noted are these: for IC50: read-out: IC50 (µM), PSG; for Ki: read-out: Ki (µM), PSG.
Test [2] deals with PSG G322A (PSD-95). The conditions noted are these: for IC50: read-out: IC50 (µM), PSG G322A; for Ki: read-out: Ki (µM), PSG G322A.
Test [3] deals with PSG G335A (PSD-95). The settings on record: for IC50: read-out: IC50 (µM), PSG G335A; for Ki: read-out: Ki (µM), PSG G335A.
For test [4], the target named is PSG G322A G335A (PSD-95). The conditions noted are these: for IC50: read-out: IC50 (µM), PSG G322A G335A; for Ki: read-out: Ki (µM), PSG G322A G335A.
The mark [5] stands for this setting: FP displacement of FITC-15 AA CRIPT probe by PSD library peptide, protein PSG (wild type).
Setting [6] is: FP displacement of FITC-15 AA CRIPT probe by PSD library peptide, protein PSG G322A.
[7] abbreviates: FP displacement of FITC-15 AA CRIPT probe by PSD library peptide, protein PSG G335A.
Where [8] appears, read: FP displacement of FITC-15 AA CRIPT probe by PSD library peptide, protein PSG G322A G335A.
Setting [9] is: FP displacement of FITC-15 AA CRIPT probe by acetylated PSD library peptide.
The mark [10] stands for this setting: FP displacement of FITC-15 AA CRIPT probe by acetylated PSD library peptide (P-13 to P0 plus extra N-terminal Y).

Results on seven molecules are retold here after article PMC9490041, “Determinants of affinity, specificity, and phase separation in a supramodule from Post-synaptic density protein 95” (iScience, 2022).

Where two headings read alike, the source gives them in different places. Ends that are not written are not given here.

`CC(=O)N[C@@H](Cc1ccc(O)cc1)C(=O)N[C@@H](CC(C)C)C(=O)N[C@@H](C)C(=O)N[C@@H](CC(=O)O)C(=O)N[C@@H](CCC(=O)O)C(=O)N[C@H](C(=O)N[C@@H](CO)C(=O)N[C@@H](C)C(=O)N[C@@H](CO)C(=O)N[C@@H](CC(C)C)C(=O)N[C@@H](C)C(=O)N[C@@H](CCCCN)C(=O)N[C@@H](CCC(N)=O)C(=O)NCC(=O)N[C@@H](CC(C)C)C(=O)O)C(C)C` [TAU]: the half-maximal inhibitory concentration (IC50) in test [1] (setting [5]) worked out at 2070 µM; in test [2] (setting [6]) it was 489 µM; in test [3] (setting [7]), 729 µM; in test [4] (setting [8]) it was 219 µM. Further, the inhibition constant Ki in test [1] (setting [5]) is 884 µM; in test [2] (setting [6]) it was 212 µM; in test [3] (setting [7]) it was 260 µM; in test [4] (setting [8]), 76 µM.

Turning to `CC[C@H](C)[C@H](NC(=O)[C@H](CC(C)C)NC(=O)[C@H](C)NC(=O)[C@@H](NC(=O)[C@H](C)NC(=O)[C@H](Cc1ccc(O)cc1)NC(C)=O)C(C)C)C(=O)N[C@@H](C)C(=O)N[C@@H](Cc1ccc(O)cc1)C(=O)N[C@@H](CC(C)C)C(=O)N[C@@H](CO)C(=O)N[C@@H](CCCCN)C(=O)N[C@@H](CC(N)=O)C(=O)N[C@@H](CC(N)=O)C(=O)N[C@@H](Cc1c[nH]cn1)C(=O)N[C@@H](CC(C)C)C(=O)O` [SYNG1], the IC50 in test [1] (setting [9]) came out at 1440 µM; in test [3] (setting [9]), 663 µM; in test [4] (setting [10]), 733 µM. In addition, the Ki turned out to be 613 µM in test [1] (setting [9]), 236 µM in test [3] (setting [9]) and 254 µM in test [4] (setting [9]).

Consider `CC(=O)N[C@@H](Cc1ccc(O)cc1)C(=O)N[C@@H](Cc1c[nH]cn1)C(=O)N[C@@H](Cc1c[nH]cn1)C(=O)N[C@H](C(=O)N[C@@H](CO)C(=O)N[C@@H](Cc1ccc(O)cc1)C(=O)N[C@H](C(=O)N[C@@H](C)C(=O)N[C@@H](CO)C(=O)N[C@@H](CCCCN)C(=O)N[C@H](C(=O)N[C@@H](CCC(=O)O)C(=O)N[C@H](C(=O)N[C@H](C(=O)N[C@H](C(=O)O)C(C)C)[C@@H](C)O)C(C)C)[C@@H](C)O)[C@@H](C)O)[C@@H](C)O` [SHSA6], for which the 50% inhibitory concentration (IC50) in test [1] (setting [5]) was found to be 1220 µM; in test [2] (setting [6]) it was 2000 µM; in test [4] (setting [8]) it was 1170 µM. The Ki in test [1] (setting [5]) was found to be 518 µM; in test [2] (setting [6]), 867 µM; in test [4] (setting [8]) it was 405 µM.

Consider Ac-YSRQHSKLLDFDDVL [NSMF], for which, in test [1] (setting [9]), the IC50 came to 1390 µM and the Ki was 592 µM.

Regarding `CC[C@H](C)[C@H](NC(=O)[C@H](Cc1ccccc1)NC(=O)[C@H](Cc1ccc(O)cc1)NC(=O)[C@@H]1CCCN1C(=O)[C@H](CCC(N)=O)NC(=O)[C@H](Cc1ccc(O)cc1)NC(C)=O)C(=O)N[C@H](C(=O)N[C@@H](CC(N)=O)C(=O)N[C@@H](CO)C(=O)N[C@@H](CCCCN)C(=O)N[C@H](C(=O)N[C@@H](CCC(=O)O)C(=O)N[C@H](C(=O)N[C@H](C(=O)N[C@H](C(=O)O)C(C)C)[C@@H](C)O)C(C)C)[C@@H](C)O)[C@@H](C)O` [SHSA9], the concentration for half-maximal inhibition (IC50) was determined as 756 µM in test [2] (setting [9]), 1130 µM in test [3] (setting [9]) and 994 µM in test [4] (setting [10]). Moreover, the Ki in test [2] (setting [9]) is 328 µM; in test [3] (setting [9]) it was 404 µM; in test [4] (setting [9]), 344 µM.

For the molecule Ac-YDVVAVYPNAKVELV [PDLI4], the IC50 amounted to 651 µM in test [2] (setting [9]), 1510 µM in test [3] (setting [9]) and 881 µM in test [4] (setting [10]). The inhibition constant Ki in test [2] (setting [9]) was 282 µM; in test [3] (setting [9]), 538 µM; in test [4] (setting [9]) it was 305 µM.

Turning to Ac-YDKPLSKKHAHSVNF [PDLI5], the values for the IC50 in test [1] (setting [9]), in test [3] (setting [9]) and in test [4] (setting [10]) were 2060 µM, 2060 µM and 973 µM, respectively. Also, the inhibition constant (Ki) in test [1] (setting [9]) is 879 µM; in test [3] (setting [9]) it was 736 µM; in test [4] (setting [9]), 337 µM.

The IC50 is the point on the concentration scale where inhibition reaches its midpoint. The Ki is the equilibrium dissociation constant of an inhibitor or competing ligand from its target.
